Earlier results, collected in patent US20090048237A1 (priority 2007, published 2009).
Read-outs that look alike come from different tables or passages of the source.

Assays:
[1] = human, in vivo
[2] = not given; remark: listed apart in the source
[3] = 0.2 mg/kg sublingual versus 0.2 mg/kg nasal, children
[4] = in vivo
[5] = 200 mcg sublingual
[6] = 125 mcg and 250 mcg
[7] = children
[8] = sublingual Halcion tablets

Structure (SMILES) | children with satisfactory sedation at 15 min after administration (0.25 mg/kg under the tongue) | children with satisfactory sedation at 15 min after administration (0.5 mg/kg under the tongue) | children with satisfactory sedation at 15 min after administration (0.75 mg/kg under the tongue) | children who had not previously cried that cried on administration [1] | patients who experienced nasal irritation [1] | patients with complete drug dissolution within 10 min ([2]; 7.5 mg sublingual tablet) | sedation scores ([2]; 7.5 mg sublingual versus oral, 30 and 60 min after administration) | midazolam level 30 min after premedication [3] | tablet dissolution time [4] | depth of sedation versus 10 mg oral diazepam [5] | time after administration at which sedation developed ([5]; 61-70 year old patients) | sedation and psychomotor performance, elderly versus young persons at the same dose [6] | average sublingual tablet dissolution [7] | tablet dissolution after dosing [8]
Cc1ncc2n1-c1ccc(Cl)cc1C(c1ccccc1F)=NC2 [Midazolam, 8-chloro-6-(2-fluorophenyl)-1-methyl-4H-imidazo[1,5-a][1,4]benzodiazepine] | 28% | 52% | 64% | 71% | 20 | 72% | higher than in the oral group | statistically significantly higher than in the nasal group | – | – | – | – | – | –
Cc1nnc2n1-c1ccc(Cl)cc1C(c1ccccc1Cl)=NC2 [Triazolam, 8-chloro-6-(o-chlorophenyl)-1-methyl-4H-s-triazolo-[4,3-alpha][1,4]benzodiazepine] | – | – | – | – | – | – | – | – | ≤ 90 s | deeper sedation | 60 to 90 min | greater degree of sedation and greater impairment of psychomotor performance | 4 min | 2 to 3 min
